Data taken from ChEMBL document CHEMBL1140824, “Hepatoselectivity of statins: design and synthesis of 4-sulfamoyl pyrroles as HMG-CoA reductase inhibitors” (Bioorg Med Chem Lett, 2008).
pIC50: −log10 of the molar value.

Tests used:
[1] = system: Hepatocyte; assay: Inhibition of cholesterol synthesis in rat hepatocyte; format: functional, cell-based
[2] = system: L6; assay: Inhibition of cholesterol synthesis in rat L6 myocyte; format: functional, cell-based
[3] = system: Hepatocyte; assay: Selectivity, ratio of IC50 for rat L6 myocyte to IC50 for rat hepatocyte; format: functional
[4] = biological target: T1, 3-hydroxy-3-methylglutaryl-coenzyme A reductase (Rattus norvegicus, UniProt P51639); assay: Inhibition of rat microsomal HMGCoA reductase
T1 sequence (P51639 whole entry): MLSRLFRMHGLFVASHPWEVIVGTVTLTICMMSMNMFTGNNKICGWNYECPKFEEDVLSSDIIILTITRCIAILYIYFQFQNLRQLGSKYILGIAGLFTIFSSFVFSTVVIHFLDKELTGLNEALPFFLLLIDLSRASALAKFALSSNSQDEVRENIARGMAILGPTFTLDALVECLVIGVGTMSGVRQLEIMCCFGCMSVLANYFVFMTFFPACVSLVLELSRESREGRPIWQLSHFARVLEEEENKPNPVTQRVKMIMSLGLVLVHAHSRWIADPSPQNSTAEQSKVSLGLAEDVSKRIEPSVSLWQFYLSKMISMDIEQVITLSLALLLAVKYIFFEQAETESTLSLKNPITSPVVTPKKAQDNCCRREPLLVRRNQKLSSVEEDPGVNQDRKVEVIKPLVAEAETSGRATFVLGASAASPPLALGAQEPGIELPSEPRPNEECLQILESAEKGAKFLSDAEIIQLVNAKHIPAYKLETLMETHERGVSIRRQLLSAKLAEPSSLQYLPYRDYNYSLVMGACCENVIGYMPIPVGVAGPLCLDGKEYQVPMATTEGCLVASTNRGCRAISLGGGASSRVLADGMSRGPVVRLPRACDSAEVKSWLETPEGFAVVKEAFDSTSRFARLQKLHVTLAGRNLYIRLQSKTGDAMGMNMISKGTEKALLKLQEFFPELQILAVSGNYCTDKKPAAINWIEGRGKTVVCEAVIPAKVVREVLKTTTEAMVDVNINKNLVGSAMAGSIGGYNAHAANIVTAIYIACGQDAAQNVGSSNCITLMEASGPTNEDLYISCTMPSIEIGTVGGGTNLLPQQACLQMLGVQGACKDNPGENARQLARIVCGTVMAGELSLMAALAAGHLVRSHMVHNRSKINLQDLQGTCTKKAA

[5] = system: Mus musculus; assay: Inhibition of acute cholesterol synthesis in mouse at 1 mg/kg; format: functional; details: read-out: Inhibition
[6] = system: Syrian golden hamster; assay: Reduction of LDL cholesterol level in syrian golden hamster plasma; format: functional, Mesocricetus auratus
[7] = Cmax in human; format: ADME, organism-based; details: in vivo
[8] = Ratio of Cmax for human to IC50 for rat L6 myocyte; format: functional
[9] = organism: Homo sapiens; assay: Incidence of myalgia in human; format: ADME, organism-based; details: in vivo

Compound | pIC50 [1] | pIC50 [2] | Ratio IC50 [3] | pIC50 [4] | inhibition in vivo at 1 mg/kg [5] | Inhibition [6] | Cmax [7] | Ratio [8] | Activity [9]
CC(C)c1c(S(=O)(=O)N2CCc3ccccc3C2)c(-c2ccc(F)cc2)c(-c2ccc(F)cc2)n1CC[C@@H](O)C[C@@H](O)CC(=O)[O-].[Na+] | 8.60 | 5.60 | 984 | 8.08 |  |  |  |  | 
CC(C)c1c(S(=O)(=O)Nc2ccccc2)c(-c2ccc(F)cc2)c(-c2ccc(F)cc2)n1CC[C@@H](O)C[C@@H](O)CC(=O)[O-].[Na+] | 9.02 | 7.35 | 45 | 8.70 |  |  |  |  | 
CC(C)c1c(S(=O)(=O)Nc2cccc(O)c2)c(-c2ccc(F)cc2)c(-c2ccc(F)cc2)n1CC[C@@H](O)C[C@@H](O)CC(=O)[O-].[Na+] | 9.40 | 5.60 | 6250 | 8.03 | 44.2% |  |  |  | 
CC(C)c1c(S(=O)(=O)NCc2ccccc2)c(-c2ccc(F)cc2)c(-c2ccc(F)cc2)n1CC[C@@H](O)C[C@@H](O)CC(=O)[O-].[Na+] | 9.43 | 5.66 | 5945 | 7.89 | 58.6% |  |  |  | 
CC(C)c1c(S(=O)(=O)N2CCSCC2)c(-c2ccc(F)cc2)c(-c2ccc(F)cc2)n1CC[C@@H](O)C[C@@H](O)CC(=O)[O-].[Na+] | 8.48 | 5.24 | 1748 | 8.01 | 15% |  |  |  | 
CC(C)c1c(S(=O)(=O)N2CCC2)c(-c2ccccc2)c(-c2ccc(F)cc2)n1CC[C@@H](O)C[C@@H](O)CC(=O)[O-].[Na+] | 8.96 | 5.67 | 1954 | 8.74 | 34.8% |  |  |  | 
CC(C)c1c(S(=O)(=O)N(C)C)c(-c2ccc(F)cc2)c(-c2ccc(F)cc2)n1CC[C@@H](O)C[C@@H](O)CC(=O)[O-].[Na+] | 9.12 | 5.85 | 1866 | 8.21 | 58.8% | 30% |  |  | 
CC(C)c1c(S(=O)(=O)Nc2ccc(S(N)(=O)=O)cc2)c(-c2ccc(F)cc2)c(-c2ccc(F)cc2)n1CC[C@@H](O)C[C@@H](O)CC(=O)[O-].[Na+] | 8.57 | 5.36 | 1622 | 8.31 | 15% |  |  |  | 
CC(C)c1c(S(=O)(=O)Nc2cccc(C(N)=O)c2)c(-c2ccc(F)cc2)c(-c2ccc(F)cc2)n1CC[C@@H](O)C[C@@H](O)CC(=O)[O-].[Na+] | 8.30 | 4.44 | 7340 | 7.74 |  |  |  |  | 
CC(C)c1c(S(=O)(=O)N2CCOCC2)c(-c2ccccc2)c(-c2ccc(F)cc2)n1CC[C@@H](O)C[C@@H](O)CC(=O)[O-].[Na+] | 9.10 | 5.00 | 12469 |  | 55.6% | 11% |  |  | 
CC(C)c1c(S(=O)(=O)Nc2cccc(CC(N)=O)c2)c(-c2ccc(F)cc2)c(-c2ccc(F)cc2)n1CC[C@@H](O)C[C@@H](O)CC(=O)[O-].[Na+] | 8.85 | 5.00 | 7299 | 9.00 |  |  |  |  | 
CC(C)c1c(S(=O)(=O)N2CCN(C)CC2)c(-c2ccccc2)c(-c2ccc(F)cc2)n1CC[C@@H](O)C[C@@H](O)CC(=O)[O-].[Na+] | 8.52 | 4.98 | 3559 | 8.57 |  |  |  |  | 
CC(C)c1c(S(=O)(=O)N(C)Cc2ccccc2)c(-c2ccccc2)c(-c2ccc(F)cc2)n1CC[C@@H](O)C[C@@H](O)CC(=O)[O-].[Na+] | 9.60 | 6.85 | 566 | 8.07 |  |  |  |  | 
CC(C)c1c(S(=O)(=O)Nc2ccccc2)c(-c2ccccc2)c(-c2ccc(F)cc2)n1CC[C@@H](O)C[C@@H](O)CC(=O)[O-].[Na+] | 9.24 | 7.70 | 34 | 8.05 | 49.2% |  |  |  | 
CC(C)c1c(S(=O)(=O)Nc2ccc(C(N)=O)cc2)c(-c2ccc(F)cc2)c(-c2ccc(F)cc2)n1CC[C@@H](O)C[C@@H](O)CC(=O)[O-].[Na+] | 8.74 | 5.63 | 1300 | 8.24 | 34.4% |  |  |  | 
CC(C)c1c(S(=O)(=O)N(C)Cc2ccccc2)c(-c2ccc(F)cc2)c(-c2ccc(F)cc2)n1CC[C@@H](O)C[C@@H](O)CC(=O)[O-].[Na+] | 9.16 | 6.26 | 797 | 8.10 |  |  |  |  | 
CC(C)c1c(S(=O)(=O)N2CCCC2)c(-c2ccccc2)c(-c2ccc(F)cc2)n1CC[C@@H](O)C[C@@H](O)CC(=O)[O-].[Na+] | 9.30 | 5.28 | 10400 | 8.59 | 75.9% | 38% |  |  | 
CC(C)c1c(S(=O)(=O)N2CCCCC2)c(-c2ccccc2)c(-c2ccc(F)cc2)n1CC[C@@H](O)C[C@@H](O)CC(=O)[O-].[Na+] | 9.17 | 5.15 | 10479 | 8.54 | 56% |  |  |  | 
CC(C)c1c(S(=O)(=O)N(C)C)c(-c2ccccc2)c(-c2ccc(F)cc2)n1CC[C@@H](O)C[C@@H](O)CC(=O)[O-].[Na+] | 9.35 | 5.86 | 3066 | 8.19 |  |  |  |  | 
CC(C)c1c(S(=O)(=O)Nc2ccc(F)cc2)c(-c2ccc(F)cc2)c(-c2ccc(F)cc2)n1CC[C@@H](O)C[C@@H](O)CC(=O)[O-].[Na+] | 9.33 | 7.22 | 127 | 7.82 | 51.8% |  |  |  | 
CNS(=O)(=O)c1c(-c2ccc(F)cc2)c(-c2ccc(F)cc2)n(CC[C@@H](O)C[C@@H](O)CC(=O)O)c1C(C)C | 9.66 |  |  | 7.57 | 33% |  |  |  | 
CC(C)c1c(C(=O)Nc2ccccc2)c(-c2ccccc2)c(-c2ccc(F)cc2)n1CC[C@@H](O)C[C@@H](O)CC(=O)O [ATORVASTATIN] | 9.00 | 6.85 |  |  | 75.2% |  |  |  | 
COCc1c(C(C)C)nc(C(C)C)c(/C=C/[C@@H](O)C[C@@H](O)CC(=O)O)c1-c1ccc(F)cc1 [CERIVASTATIN] |  | 8.15 | 4.1 |  |  |  | 25 nM | 3.6 | 
CC[C@H](C)C(=O)O[C@H]1C[C@H](O)C=C2C=C[C@H](C)[C@H](CC[C@@H](O)C[C@@H](O)CC(=O)O)[C@H]21 [PRAVASTATIN] |  |  | 444 |  |  |  | 100 nM | 0.01 | 10.9%
CC(C)c1nc(N(C)S(C)(=O)=O)nc(-c2ccc(F)cc2)c1/C=C/[C@@H](O)C[C@@H](O)CC(=O)O [ROSUVASTATIN] |  |  | 926 | 8.43 | 82.4% | 62% | 75 nM | 0.3 | 
CCC(C)(C)C(=O)O[C@H]1C[C@@H](C)C=C2C=C[C@H](C)[C@H](CC[C@@H]3C[C@@H](O)CC(=O)O3)[C@H]21 [SIMVASTATIN] |  | 6.82 |  |  |  |  | 120 nM |  | 18.2%
